Laboratory results from patent US10710978B2, “STK4 inhibitors for treatment of hematologic malignancies” (Dana-Farber Cancer Institute, Inc., priority 2015, dated 2020).
Read-outs that look alike come from different tables or passages of the source.

Columns and labels:
Test in all cases: KiNativ assay
Type in all cases: binding
AurA, AurB, AurC = conditions: H929 live cell
Protocol: (§1) Biochemical IC50s of the compounds of the present disclosure against various kinases were measured in a KiNativ assay. Compounds were screened in duplicate at 10 μM in H929 live cell. IC50 was measured via Mass spectroscopy (MS).

BRAF = BRAF (Homo sapiens (Human), UniProt P15056); conditions: H929 live cell
Chain of BRAF (P15056 whole entry): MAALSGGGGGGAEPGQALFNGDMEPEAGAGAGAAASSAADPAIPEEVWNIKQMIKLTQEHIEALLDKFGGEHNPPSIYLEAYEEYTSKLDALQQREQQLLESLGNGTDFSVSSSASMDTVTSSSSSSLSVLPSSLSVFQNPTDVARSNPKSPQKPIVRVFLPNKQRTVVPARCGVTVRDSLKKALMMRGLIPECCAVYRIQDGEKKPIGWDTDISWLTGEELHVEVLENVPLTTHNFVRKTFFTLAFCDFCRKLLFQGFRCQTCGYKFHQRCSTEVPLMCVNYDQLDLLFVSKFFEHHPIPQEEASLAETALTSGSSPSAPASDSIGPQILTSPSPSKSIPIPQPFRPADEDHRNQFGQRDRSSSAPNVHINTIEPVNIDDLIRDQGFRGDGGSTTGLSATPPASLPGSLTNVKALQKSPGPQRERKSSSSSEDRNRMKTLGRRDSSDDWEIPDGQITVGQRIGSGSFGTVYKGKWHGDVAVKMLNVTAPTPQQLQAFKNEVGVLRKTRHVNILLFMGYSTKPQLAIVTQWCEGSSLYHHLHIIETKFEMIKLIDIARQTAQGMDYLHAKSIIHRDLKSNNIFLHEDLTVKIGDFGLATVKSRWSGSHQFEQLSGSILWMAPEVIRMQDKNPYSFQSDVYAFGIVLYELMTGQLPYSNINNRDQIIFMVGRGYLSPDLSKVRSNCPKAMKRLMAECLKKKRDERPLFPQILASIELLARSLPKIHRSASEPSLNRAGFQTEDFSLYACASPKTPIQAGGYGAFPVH
Protocol: as §1

CDK11, CDK8 = conditions: H929 live cell
Protocol: as §1

CHK1 = CHK1 (Homo sapiens (Human), UniProt O14757); conditions: H929 live cell
Protocol: as §1

[1] = system: CaMK2a, CaMK2b, CaMK2d, CaMK2g; conditions: H929 live cell
Protocol: as §1

Erk1 = Erk1 (Homo sapiens (Human), UniProt P27361); conditions: H929 live cell
Protocol: as §1

FER = FER (Homo sapiens (Human), UniProt P16591); conditions: H929 live cell
Protocol: as §1

HPK1 = HPK1 (Homo sapiens (Human), UniProt Q92918); conditions: H929 live cell
Protocol: as §1

IKKe, TBK1 = conditions: H929 live cell
Protocol: as §1

IRAK1 = IRAK1 (Homo sapiens (Human), UniProt P51617); conditions: H929 live cell
Protocol: as §1

MAP2K1 = MAP2K1 (Homo sapiens (Human), UniProt Q02750); conditions: H929 live cell
Protocol: as §1

MAP2K1, MAP2K2 = conditions: 10 μM, H929 live cell; range class
Protocol: as §1

MAP2K6 = MAP2K6 (Homo sapiens (Human), UniProt P52564); conditions: H929 live cell
Chain of MAP2K6 (P52564 whole entry): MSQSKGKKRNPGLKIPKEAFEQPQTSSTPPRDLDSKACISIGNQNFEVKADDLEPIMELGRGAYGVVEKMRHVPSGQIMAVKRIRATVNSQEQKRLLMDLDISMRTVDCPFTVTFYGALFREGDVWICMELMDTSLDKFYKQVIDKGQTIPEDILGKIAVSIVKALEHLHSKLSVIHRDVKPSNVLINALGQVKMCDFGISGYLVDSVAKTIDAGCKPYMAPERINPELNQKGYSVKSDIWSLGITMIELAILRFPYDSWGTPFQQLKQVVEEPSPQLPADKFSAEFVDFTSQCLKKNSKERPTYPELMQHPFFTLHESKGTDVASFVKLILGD
Protocol: as §1

MAP3K2 = MAP3K2 (Homo sapiens (Human), UniProt Q9Y2U5); conditions: H929 live cell
Protocol: as §1

MARK1, MARK2 = conditions: H929 live cell
Protocol: as §1

MARK2 = MARK2 (Homo sapiens (Human), UniProt Q7KZI7); conditions: H929 live cell
Protocol: as §1

MARK4 = MARK4 (Homo sapiens (Human), UniProt Q96L34); conditions: H929 live cell
Protocol: as §1

MASTL = MASTL (Homo sapiens (Human), UniProt Q96GX5); conditions: H929 live cell
Protocol: as §1

MST4 = conditions: H929 live cell
Protocol: as §1

NDR1 = NDR1 (Homo sapiens (Human), UniProt Q15208); conditions: H929 live cell
Protocol: as §1

NEK3 = NEK3 (Homo sapiens (Human), UniProt P51956); conditions: H929 live cell
Chain of NEK3 (P51956 whole entry): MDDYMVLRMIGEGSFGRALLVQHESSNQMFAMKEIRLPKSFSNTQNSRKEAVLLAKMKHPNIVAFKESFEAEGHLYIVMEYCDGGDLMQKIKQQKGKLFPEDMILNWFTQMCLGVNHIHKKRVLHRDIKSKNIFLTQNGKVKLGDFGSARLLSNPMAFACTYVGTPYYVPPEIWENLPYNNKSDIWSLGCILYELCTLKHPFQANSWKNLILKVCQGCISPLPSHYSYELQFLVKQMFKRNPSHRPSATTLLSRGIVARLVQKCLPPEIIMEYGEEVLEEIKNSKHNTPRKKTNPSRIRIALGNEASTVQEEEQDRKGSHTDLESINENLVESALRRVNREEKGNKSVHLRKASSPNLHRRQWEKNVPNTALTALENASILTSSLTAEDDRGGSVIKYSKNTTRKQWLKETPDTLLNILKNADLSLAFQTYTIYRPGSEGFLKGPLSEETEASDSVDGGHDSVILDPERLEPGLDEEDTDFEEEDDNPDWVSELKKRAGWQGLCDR
Protocol: as §1

NuaK2 = NuaK2 (Homo sapiens (Human), UniProt Q9H093); conditions: H929 live cell
Protocol: as §1

PAN3 = PAN3 (Homo sapiens (Human), UniProt Q58A45); conditions: H929 live cell
Protocol: as §1

PEK = PEK (Homo sapiens (Human), UniProt Q9NZJ5); conditions: H929 live cell
Protocol: as §1

PHKg2 = PHKg2 (Homo sapiens (Human), UniProt P15735); conditions: H929 live cell
Protocol: as §1

PI4KB = PI4KB (Homo sapiens (Human), UniProt Q9UBF8); conditions: H929 live cell
Protocol: as §1

PIP4K2A = PIP4K2A (Homo sapiens (Human), UniProt P48426); conditions: H929 live cell
Chain of PIP4K2A (P48426 whole entry): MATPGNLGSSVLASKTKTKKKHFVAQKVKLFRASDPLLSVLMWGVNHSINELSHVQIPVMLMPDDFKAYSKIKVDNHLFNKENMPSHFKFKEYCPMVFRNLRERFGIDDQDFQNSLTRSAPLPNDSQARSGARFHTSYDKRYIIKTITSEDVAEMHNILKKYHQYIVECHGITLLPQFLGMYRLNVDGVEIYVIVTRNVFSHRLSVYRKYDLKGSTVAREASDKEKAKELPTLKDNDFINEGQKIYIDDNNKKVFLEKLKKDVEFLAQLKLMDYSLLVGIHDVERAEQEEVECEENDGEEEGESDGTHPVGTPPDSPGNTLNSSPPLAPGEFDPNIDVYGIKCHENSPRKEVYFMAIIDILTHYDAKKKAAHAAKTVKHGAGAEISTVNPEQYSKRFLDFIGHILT
Protocol: as §1

PITSLRE = conditions: H929 live cell
Protocol: as §1

PKD3 = PKD3 (Homo sapiens (Human), UniProt O94806); conditions: H929 live cell
Protocol: as §1

RSKL1 = RSKL1 (Homo sapiens (Human), UniProt Q96S38); conditions: H929 live cell
Protocol: as §1

SRPK2 = SRPK2 (Homo sapiens (Human), UniProt P78362); conditions: H929 live cell
Chain of SRPK2 (P78362 whole entry): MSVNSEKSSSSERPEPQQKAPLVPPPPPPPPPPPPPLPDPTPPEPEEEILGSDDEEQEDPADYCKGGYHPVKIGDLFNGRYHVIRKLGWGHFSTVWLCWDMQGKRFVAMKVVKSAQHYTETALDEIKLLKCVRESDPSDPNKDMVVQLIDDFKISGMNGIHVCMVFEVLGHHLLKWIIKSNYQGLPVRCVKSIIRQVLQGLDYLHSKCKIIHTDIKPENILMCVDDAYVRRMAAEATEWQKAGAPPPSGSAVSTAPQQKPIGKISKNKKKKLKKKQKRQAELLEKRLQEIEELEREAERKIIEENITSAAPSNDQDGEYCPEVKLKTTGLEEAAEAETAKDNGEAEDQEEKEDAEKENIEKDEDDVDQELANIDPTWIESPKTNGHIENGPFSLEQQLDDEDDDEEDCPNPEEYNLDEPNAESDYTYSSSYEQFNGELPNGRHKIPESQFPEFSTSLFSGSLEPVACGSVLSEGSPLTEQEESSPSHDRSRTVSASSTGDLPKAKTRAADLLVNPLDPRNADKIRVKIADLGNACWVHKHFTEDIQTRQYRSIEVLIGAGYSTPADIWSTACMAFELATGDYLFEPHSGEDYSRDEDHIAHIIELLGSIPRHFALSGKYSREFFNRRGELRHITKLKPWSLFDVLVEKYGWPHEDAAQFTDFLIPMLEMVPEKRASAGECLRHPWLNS
Protocol: as §1

TLK1 = TLK1 (Homo sapiens (Human), UniProt Q9UKI8); conditions: H929 live cell
Chain of TLK1 (Q9UKI8 whole entry): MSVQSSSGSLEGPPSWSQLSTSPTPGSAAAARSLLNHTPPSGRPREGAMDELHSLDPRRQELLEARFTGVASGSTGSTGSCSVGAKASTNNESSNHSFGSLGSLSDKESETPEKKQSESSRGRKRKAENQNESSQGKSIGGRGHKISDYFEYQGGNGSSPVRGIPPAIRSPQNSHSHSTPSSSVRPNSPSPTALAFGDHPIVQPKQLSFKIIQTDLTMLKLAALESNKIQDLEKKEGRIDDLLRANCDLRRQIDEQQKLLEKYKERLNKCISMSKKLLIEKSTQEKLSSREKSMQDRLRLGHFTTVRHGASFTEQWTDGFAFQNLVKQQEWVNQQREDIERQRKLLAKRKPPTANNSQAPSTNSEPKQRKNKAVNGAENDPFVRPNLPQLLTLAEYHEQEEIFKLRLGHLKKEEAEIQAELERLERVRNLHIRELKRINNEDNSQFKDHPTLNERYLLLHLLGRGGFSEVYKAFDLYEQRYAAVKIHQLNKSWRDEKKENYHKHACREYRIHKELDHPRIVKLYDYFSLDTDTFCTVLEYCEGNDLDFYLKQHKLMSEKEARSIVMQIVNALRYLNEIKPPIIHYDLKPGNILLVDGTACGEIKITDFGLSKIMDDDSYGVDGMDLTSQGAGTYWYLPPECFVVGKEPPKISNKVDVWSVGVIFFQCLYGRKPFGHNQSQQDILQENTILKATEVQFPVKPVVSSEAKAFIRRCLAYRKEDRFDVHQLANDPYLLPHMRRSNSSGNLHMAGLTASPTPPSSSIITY
Protocol: as §1

ZAK = ZAK (Homo sapiens (Human), UniProt Q9NYL2); conditions: H929 live cell
Chain of ZAK (Q9NYL2 whole entry): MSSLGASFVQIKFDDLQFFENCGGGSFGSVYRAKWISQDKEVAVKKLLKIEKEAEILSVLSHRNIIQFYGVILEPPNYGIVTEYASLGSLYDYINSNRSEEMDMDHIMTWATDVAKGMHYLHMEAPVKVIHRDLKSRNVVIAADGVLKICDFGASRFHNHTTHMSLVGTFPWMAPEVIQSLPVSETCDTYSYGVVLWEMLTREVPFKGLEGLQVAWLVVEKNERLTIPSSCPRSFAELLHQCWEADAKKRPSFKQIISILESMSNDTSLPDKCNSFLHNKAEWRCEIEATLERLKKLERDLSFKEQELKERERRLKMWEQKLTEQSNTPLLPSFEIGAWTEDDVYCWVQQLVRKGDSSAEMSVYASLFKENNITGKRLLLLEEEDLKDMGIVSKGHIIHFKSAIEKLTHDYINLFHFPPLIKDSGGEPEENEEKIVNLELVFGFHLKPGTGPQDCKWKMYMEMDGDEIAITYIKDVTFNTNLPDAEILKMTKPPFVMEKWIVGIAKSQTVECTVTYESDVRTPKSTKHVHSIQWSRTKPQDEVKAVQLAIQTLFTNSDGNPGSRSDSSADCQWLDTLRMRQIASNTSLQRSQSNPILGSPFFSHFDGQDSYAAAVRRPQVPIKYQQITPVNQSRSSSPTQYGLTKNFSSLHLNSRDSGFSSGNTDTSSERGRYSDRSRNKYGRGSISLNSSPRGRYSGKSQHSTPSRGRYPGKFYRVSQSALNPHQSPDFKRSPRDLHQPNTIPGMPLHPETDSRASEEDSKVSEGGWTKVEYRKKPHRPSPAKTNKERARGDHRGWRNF
Protocol: as §1

eEF2K = eEF2K (Homo sapiens (Human), UniProt O00418); conditions: H929 live cell
Chain of eEF2K (O00418 whole entry): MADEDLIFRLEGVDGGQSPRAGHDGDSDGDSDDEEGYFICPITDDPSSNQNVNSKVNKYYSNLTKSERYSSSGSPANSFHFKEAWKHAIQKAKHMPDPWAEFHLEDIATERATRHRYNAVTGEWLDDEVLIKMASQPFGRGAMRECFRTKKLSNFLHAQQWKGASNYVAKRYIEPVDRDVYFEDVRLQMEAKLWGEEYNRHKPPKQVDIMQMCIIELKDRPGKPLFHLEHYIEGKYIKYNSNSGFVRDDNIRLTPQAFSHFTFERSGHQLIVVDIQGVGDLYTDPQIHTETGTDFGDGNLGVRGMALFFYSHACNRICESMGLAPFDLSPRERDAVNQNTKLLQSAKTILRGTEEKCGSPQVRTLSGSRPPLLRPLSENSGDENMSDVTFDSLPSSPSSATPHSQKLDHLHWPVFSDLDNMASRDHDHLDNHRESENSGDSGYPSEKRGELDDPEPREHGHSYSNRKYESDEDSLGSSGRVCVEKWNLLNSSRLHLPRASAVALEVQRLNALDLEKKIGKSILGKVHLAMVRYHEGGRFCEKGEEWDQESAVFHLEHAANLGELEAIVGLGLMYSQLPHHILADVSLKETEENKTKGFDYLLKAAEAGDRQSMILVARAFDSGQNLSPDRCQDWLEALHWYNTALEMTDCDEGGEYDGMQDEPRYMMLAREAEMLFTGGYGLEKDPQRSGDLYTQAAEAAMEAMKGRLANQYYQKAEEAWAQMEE
Protocol: as §1

[2] = range class, read-out: % inhibition

For `Nc1ncc(-c2ccc(NS(=O)(=O)C3CC3)cc2OC2CCCCC2)cc1-c1ccc2c(c1)CCNC2=O` [Compound I-65, N-(4-(6-amino-5-(1-oxo-1,2,3,4-tetrahydroisoquinolin-6-yl)pyridin-3-yl)-3-(cyclohexyloxy)phenyl) cyclopropanesulfonamide], the “% inhibition” value (AurA, AurB, AurC; 10 μM, range class) was 35-40%, the “inhibition (10 μM)” value (AurA, AurB, AurC) was 42.9% and the inhibition at 10 µM (BRAF; [2]) was 0%. For the same compound, the inhibition at 10 µM (BRAF; read-out: inhibition (10 μM)) was -41.5%, the “% inhibition” value (CDK11, CDK8; 10 μM, range class) was 0.0% and the “inhibition (10 μM)” value (CDK11, CDK8) was 31.3%. The inhibition at 10 µM (CHK1; [2]) was 0%, the inhibition at 10 µM (CHK1; read-out: inhibition (10 μM)) was -16% and the “% inhibition” value ([1]; 10 μM, range class) was 0.0%. The “inhibition (10 μM)” value [1] was 12.8%, the inhibition at 10 µM (Erk1; [2]) was 0% and the inhibition at 10 µM (Erk1; read-out: inhibition (10 μM)) was -30.7%. The inhibition at 10 µM (FER; [2]) was 50 to 75%, the inhibition at 10 µM (FER; read-out: inhibition (10 μM)) was 63.6% and the inhibition at 10 µM (HPK1; [2]) was over 90%. For the same compound, the inhibition at 10 µM (HPK1; read-out: inhibition (10 μM)) was 95.5%, the “% inhibition” value (IKKe, TBK1; 10 μM, range class) was 75-90% and the “inhibition (10 μM)” value (IKKe, TBK1) was 81.8%. It also gave an inhibition at 10 µM (IRAK1; [2]) of 0%, an inhibition at 10 µM (IRAK1; read-out: inhibition (10 μM)) of 27.8% and an inhibition at 10 µM (MAP2K1; [2]) of 0%. For the same compound, the inhibition at 10 µM (MAP2K1; read-out: inhibition (10 μM)) was 21.2%, the “% inhibition” value (MAP2K1, MAP2K2) was 0.0% and the inhibition at 10 µM (MAP2K6; [2]) was 0%. For the same compound, the inhibition at 10 µM (MAP2K6; read-out: inhibition (10 μM)) was -15%, the inhibition at 10 µM (MAP3K2; [2]) was 0% and the inhibition at 10 µM (MAP3K2; read-out: inhibition (10 μM)) was -3.9%. The “% inhibition” value (MARK1, MARK2; 10 μM, range class) was 0.0%, the “inhibition (10 μM)” value (MARK1, MARK2) was −29.4% and the inhibition at 10 µM (MARK2; [2]) was 0%. The inhibition at 10 µM (MARK2; read-out: inhibition (10 μM)) was -45.1%, the inhibition at 10 µM (MARK4; [2]) was 0% and the inhibition at 10 µM (MARK4; read-out: inhibition (10 μM)) was -1.1%. The inhibition at 10 µM (MASTL; [2]) was 0%, the inhibition at 10 µM (MASTL; read-out: inhibition (10 μM)) was -9.6% and the “% inhibition” value (MST4; 10 μM, range class) was 35-40%. For the same compound, the “inhibition (10 μM)” value (MST4) was 47.7%, the inhibition at 10 µM (NDR1; [2]) was 0% and the inhibition at 10 µM (NDR1; read-out: inhibition (10 μM)) was -14.5%. It also gave an inhibition at 10 µM (NEK3; [2]) of 0%, an inhibition at 10 µM (NEK3; read-out: inhibition (10 μM)) of -18.4% and an inhibition at 10 µM (NuaK2; [2]) of 35 to 40%. For the same compound, the inhibition at 10 µM (NuaK2; read-out: inhibition (10 μM)) was 48.7%, the inhibition at 10 µM (PAN3; [2]) was 0% and the inhibition at 10 µM (PAN3; read-out: inhibition (10 μM)) was 5.8%. For the same compound, the inhibition at 10 µM (PEK; [2]) was 0%, the inhibition at 10 µM (PEK; read-out: inhibition (10 μM)) was -12.9% and the inhibition at 10 µM (PHKg2; [2]) was 0%. It also gave an inhibition at 10 µM (PHKg2; read-out: inhibition (10 μM)) of -64%, an inhibition at 10 µM (PI4KB; [2]) of 0% and an inhibition at 10 µM (PI4KB; read-out: inhibition (10 μM)) of 8.6%. The inhibition at 10 µM (PIP4K2A; [2]) was 0%, the inhibition at 10 µM (PIP4K2A; read-out: inhibition (10 μM)) was -4.6% and the “% inhibition” value (PITSLRE; 10 μM, range class) was 0.0%. For the same compound, the “inhibition (10 μM)” value (PITSLRE) was −17.5%, the inhibition at 10 µM (PKD3; [2]) was 0% and the inhibition at 10 µM (PKD3; read-out: inhibition (10 μM)) was -24.2%. The inhibition at 10 µM (RSKL1; [2]) was 0%, the inhibition at 10 µM (RSKL1; read-out: inhibition (10 μM)) was -10.6% and the inhibition at 10 µM (SRPK2; [2]) was 0%. It also gave an inhibition at 10 µM (SRPK2; read-out: inhibition (10 μM)) of -29.4%, an inhibition at 10 µM (TLK1; [2]) of 0% and an inhibition at 10 µM (TLK1; read-out: inhibition (10 μM)) of -1.2%. The inhibition at 10 µM (ZAK; [2]) was 35 to 40%, the inhibition at 10 µM (ZAK; read-out: inhibition (10 μM)) was 36.2% and the inhibition at 10 µM (eEF2K; [2]) was 0%. It also gave an inhibition at 10 µM (eEF2K; read-out: inhibition (10 μM)) of -21.7%.
